We go through five compounds from patent US10160743B2, “Sulphamoylthiophenamide derivatives and the use thereof as medicaments for the treatment of hepatitis B” (Janssen Sciences Ireland UC, priority 2013, dated 2018).

The test system of data set [1] is HBV. Description: Anti-HBV activity, HepG2.2.15 cell line, HBV DNA from secreted virions by realtime PCR. The data set is classed as cell-based, Hepatitis B virus. The note with it: HepG2.2.15 cells, 6 days of treatment.
Data set [2] has as its system HBV. Put plainly: Anti-HBV activity, HepG2.117 cell line (Tet-off), intracellular HBV DNA by realtime PCR. The format is cell-based, Hepatitis B virus. The note with it: HepG2.117 cells, 3 days of treatment.
The next data set concerns HepG2 cells. Description: Cytotoxicity in HepG2 cells, Resazurin assay. The data set is classed as cell-based. The settings on record: incubated for 4 days, Resazurin viability. (Alamar Blue is a resazurin reagent that responds to reducing activity.)
Data set [3] in a line: Cytotoxicity in HepG2 cells, Resazurin assay. The format is cell-based. The settings on record: human, incubated for 4 days, Resazurin viability.
[4] abbreviates: Hepatitis B virus, HepG2.2.15, 144 h.
Where [5] appears, read: Hepatitis B virus, HepG2.117, 72 h.

As for `Cc1cc(NC(=O)c2cc(S(=O)(=O)NC3(C)CCOC3)sc2C)ccc1F` (racemic) [Compound 16a, N-(4-fluoro-3-methyl-phenyl)-2-methyl-5-[(3-methyltetrahydrofuran-3yl)sulfamoyl]thiophene-3-carboxamide], the EC50 was found to be 75 nM in the data set with HBV [1] and 87 nM in the data set with HBV [2]. Besides, the CC50 with HepG2 cells is over 25000 nM.
On the same counts, the results for `Cc1cc(NC(=O)c2cc(S(=O)(=O)NC3(C)CCOC3)sc2C)ccc1F` (racemic) [Compound 16b, N-(4-fluoro-3-methyl-phenyl)-2-methyl-5-[(3-methyltetrahydrofuran-3yl)sulfamoyl]thiophene-3-carboxamide] are 28 nM, 26 nM and over 25000 nM.
For `Cc1sc(S(=O)(=O)NC2(C(F)(F)F)CC2)cc1C(=O)Nc1ccc(F)c(C#N)c1` [Compound 53, N-(3-cyano-4-fluoro-phenyl)-2-methyl-5-[[1-(trifluoromethyl)cyclo-propyl]sulfamoyl]thiophene-3-carboxamide], the EC50 came out at 120 nM in the data set on HBV [1] (setting [4]) and 140 nM in the data set with HBV [2] (setting [5]). This compound displayed a CC50 at 4 days in data set [3] of 13700 nM.
On the same counts, the results for `Cc1sc(S(=O)(=O)N[C@H](C)C(C)(F)F)cc1C(=O)Nc1ccc(F)c(F)c1` [Compound 55, 5-[[(1R)-2,2-difluoro-1-methyl-propyl]sulfamoyl]-N-(3,4-difluorophenyl)-2-methyl-thiophene-3-carboxamide] are 32 nM, 90 nM and 14600 nM.
On to `Cc1sc(S(=O)(=O)N[C@H](C)C(F)(F)F)cc1C(=O)Nc1ccc(F)c(F)c1` [Compound 56, N-(3,4-difluorophenyl)-2-methyl-5-[[(1R)-2,2,2-trifluoro-1-methyl-ethyl]sulfamoyl]thiophene-3-carboxamide], for which the EC50 in the data set with HBV [1] (setting [4]) was found to be 130 nM; with HBV [2] (setting [5]), 70 nM. Further, half-maximal cytotoxicity in data set [3] (CC50 at 4 days) was put at 14900 nM.

What is called EC50 is the midpoint of the concentration-response curve. A lower EC50 goes with higher potency in that assay. Broadly, the CC50 is the concentration that lowers cell viability or growth by half. Lower therefore signals harm at low concentration.
